Laboratory results reported in patent US20250171437A1 (Agios Pharmaceuticals,Inc., priority 2022, published 2025).

Target: T1, human PAH with the R408W mutation (A375 R408W cells) (Homo sapiens, UniProt P00439, R408W)
T1 construct: expressed in transfected cells
T1 sequence (P00439 1-452 R408W): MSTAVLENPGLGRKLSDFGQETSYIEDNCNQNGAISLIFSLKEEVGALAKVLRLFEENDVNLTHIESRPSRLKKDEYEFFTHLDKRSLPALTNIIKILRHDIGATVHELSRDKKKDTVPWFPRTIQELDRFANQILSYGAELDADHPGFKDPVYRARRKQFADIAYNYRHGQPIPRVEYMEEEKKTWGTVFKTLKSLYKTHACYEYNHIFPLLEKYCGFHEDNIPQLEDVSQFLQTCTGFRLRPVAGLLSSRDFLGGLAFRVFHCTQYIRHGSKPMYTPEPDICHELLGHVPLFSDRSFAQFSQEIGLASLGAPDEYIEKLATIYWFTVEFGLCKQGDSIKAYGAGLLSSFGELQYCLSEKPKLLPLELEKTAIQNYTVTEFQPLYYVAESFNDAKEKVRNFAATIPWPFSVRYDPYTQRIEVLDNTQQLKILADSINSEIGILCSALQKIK
Assay: Cell Based Phenylalanine Flux Assay
Settings: A375 R408W cells; 24 hrs with compound, then 20 μM sepiapterin and 800 μM 13C9,15N-Phenylalanine for 4 hours; 13C-Tyrosine by LC-MS; average where tested multiple times
In short: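 AC50 is derived from LC-MS of 13C-tyrosine in the media after a 4 h pulse of 800 μM 13C9,15N-phenylalanine plus 20 μM sepiapterin. The A375 R408W PAH cells had received duplicate 10-point, 2-fold compound dilutions (0.5% DMSO) for 24 h beforehand.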

Compound | AC50 [nM]
O=C(c1oc(-c2ccc(C(F)(F)F)cn2)nc1C(F)F)N1CCc2[nH]cnc2[C@@H]1c1nc2cc(F)ccc2o1 [Example 443, (R)-(4-(difluoromethyl)-2-(5-(trifluoromethyl)pyridin-2-yl)oxazol-5-yl)(4-(5-fluorobenzo[d]oxazol-2-yl)-6,7-dihydro-1H-imidazo[4,5-c]pyridin-5(4H)-yl)methanone] | 500 to 1000
O=C(c1oc(C2(O)CC2)nc1C(F)F)N1CCc2[nH]cnc2[C@@H]1c1nc2ccc(F)cc2o1 [Example 238, (R)-(4-(difluoromethyl)-2-(1-hydroxycyclopropyl)oxazol-5-yl)(4-(6-fluorobenzo[d]oxazol-2-yl)-6,7-dihydro-1H-imidazo[4,5-c]pyridin-5(4H)-yl)methanone] | 1000 to 5000
CC(C)(O)c1nc(C(F)F)c(C(=O)N2CCc3[nH]cnc3[C@@H]2c2nc3cc(OC(F)(F)F)ccc3o2)o1 [Example 352, (R)-(4-(difluoromethyl)-2-(2-hydroxypropan-2-yl)oxazol-5-yl)(4-(5-(trifluoromethoxy)benzo[d]oxazol-2-yl)-6,7-dihydro-1H-imidazo[4,5-c]pyridin-5(4H)-yl)methanone] | 500 to 1000
CC(C)(O)c1nc(Br)c(C(=O)N2CCc3[nH]cnc3[C@H]2c2nc3ccc(F)cc3o2)o1 [Example 249, (S)-(4-bromo-2-(2-hydroxypropan-2-yl)oxazol-5-yl)(4-(6-fluorobenzo[d]oxazol-2-yl)-6,7-dihydro-1H-imidazo[4,5-c]pyridin-5(4H)-yl)methanone] | 500 to 1000
Cn1ccc(-c2nc(C(F)F)c(C(=O)N3CCc4[nH]cnc4[C@H]3c3nc4cccc(F)c4o3)o2)n1 [Example 591, (S)-(4-(difluoromethyl)-2-(1-methyl-1H-pyrazol-3-yl)oxazol-5-yl)(4-(7-fluorobenzo[d]oxazol-2-yl)-6,7-dihydro-1H-imidazo[4,5-c]pyridin-5(4H)-yl)methanone] | ≤ 500
Cc1nc(C(C)(C)O)oc1C(=O)N1CCc2[nH]cnc2[C@@H]1c1nc2c(F)cccc2o1 [Example 260, (R)-(4-(4-fluorobenzo[d]oxazol-2-yl)-6,7-dihydro-1H-imidazo[4,5-c]pyridin-5(4H)-yl)(2-(2-hydroxypropan-2-yl)-4-methyloxazol-5-yl)methanone] | ≥ 5000
Cc1cc(F)ccc1-c1nnc(C(=O)N2CCc3[nH]cnc3[C@H]2c2nc3cc(F)ccc3o2)o1 [Example 77, (S)-(5-(4-fluoro-2-methylphenyl)-1,3,4-oxadiazol-2-yl)(4-(5-fluorobenzo[d]oxazol-2-yl)-6,7-dihydro-1H-imidazo[4,5-c]pyridin-5(4H)-yl)methanone] | 500 to 1000
O=C(c1cnn2cc(N3CCC(O)CC3)ccc12)N1CCc2[nH]cnc2[C@H]1c1nc2cc(F)cc(F)c2o1 [Example 699, (S)-(4-(5,7-difluorobenzo[d]oxazol-2-yl)-6,7-dihydro-1H-imidazo[4,5-c]pyridin-5(4H)-yl)(6-(4-hydroxypiperidin-1-yl)pyrazolo[1,5-a]pyridin-3-yl)methanone] | 1000 to 5000
Cc1ccc2oc([C@H]3c4nc[nH]c4CCN3C(=O)c3oc(C(C)(C)O)nc3C)nc2c1 [Example 332, (R)-(2-(2-hydroxypropan-2-yl)-4-methyloxazol-5-yl)(4-(5-methylbenzo[d]oxazol-2-yl)-6,7-dihydro-1H-imidazo[4,5-c]pyridin-5(4H)-yl)methanone] | 1000 to 5000
FC(F)(F)c1cnc(N2Cc3[nH]cnc3[C@H]2c2nc3ccccc3o2)nc1 [Example 949, (S)-2-(5-(5-(trifluoromethyl)pyrimidin-2-yl)-1,4,5,6-tetrahydropyrrolo[3,4-d]imidazol-4-yl)benzo[d]oxazole] | 1000 to 5000
O=C(CCc1cncs1)N1CCc2[nH]cnc2[C@@H]1c1nc2cccc(F)c2o1 [Example 410, (R)-1-(4-(7-fluorobenzo[d]oxazol-2-yl)-6,7-dihydro-1H-imidazo[4,5-c]pyridin-5(4H)-yl)-3-(thiazol-5-yl)propan-1-one] | 1000 to 5000
O=C(c1ocnc1C(F)F)N1CCc2[nH]cnc2[C@@H]1c1nc2cc(C(F)(F)F)ccc2o1 [Example 330, (R)-(4-(difluoromethyl)oxazol-5-yl)(4-(5-(trifluoromethyl)benzo[d]oxazol-2-yl)-6,7-dihydro-1H-imidazo[4,5-c]pyridin-5(4H)-yl)methanone] | ≤ 500
COc1ccc2oc([C@@H]3c4nc[nH]c4CCN3C(=O)c3ccnn3C(F)F)nc2c1 [Example 551, (S)-(1-(difluoromethyl)-1H-pyrazol-5-yl)(4-(5-methoxybenzo[d]oxazol-2-yl)-6,7-dihydro-1H-imidazo[4,5-c]pyridin-5(4H)-yl)methanone] | 500 to 1000
CC(C)(O)c1nc(C(F)F)c(C(=O)N2CCc3[nH]cnc3[C@@H]2c2nc3c(OC(F)(F)F)cccc3o2)o1 [Example 534, (R)-(4-(difluoromethyl)-2-(2-hydroxypropan-2-yl)oxazol-5-yl)(4-(4-(trifluoromethoxy)benzo[d]oxazol-2-yl)-6,7-dihydro-1H-imidazo[4,5-c]pyridin-5(4H)-yl)methanone] | ≤ 500
CCn1cnnc1C(=O)N1CCc2[nH]cnc2[C@H]1c1nc2cc(F)ccc2o1 [Example 885, (S)-(4-ethyl-4H-1,2,4-triazol-3-yl)(4-(5-fluorobenzo[d]oxazol-2-yl)-6,7-dihydro-1H-imidazo[4,5-c]pyridin-5(4H)-yl)methanone] | 1000 to 5000
Cc1cccc2nc([C@@H]3c4nc[nH]c4CCN3C(=O)c3nc(C(F)F)nn3C)oc12 [Example 613, (S)-(3-(difluoromethyl)-1-methyl-1H-1,2,4-triazol-5-yl)(4-(7-methylbenzo[d]oxazol-2-yl)-6,7-dihydro-1H-imidazo[4,5-c]pyridin-5(4H)-yl)methanone] | ≤ 500
CN(C)C(C)(C)c1nc(C(F)F)c(C(=O)N2CCc3[nH]cnc3[C@H]2c2nc3cc(F)ccc3o2)o1 [Example 291, (S)-(4-(difluoromethyl)-2-(2-(dimethylamino)propan-2-yl)oxazol-5-yl)(4-(5-fluorobenzo[d]oxazol-2-yl)-6,7-dihydro-1H-imidazo[4,5-c]pyridin-5(4H)-yl)methanone] | ≤ 500
O=C(c1oc(N2CCC(F)CC2)nc1C(F)F)N1CCc2[nH]cnc2[C@H]1c1nc2cccc(F)c2o1 [Example 676, (S)-(4-(difluoromethyl)-2-(4-fluoropiperidin-1-yl)oxazol-5-yl)(4-(7-fluorobenzo[d]oxazol-2-yl)-6,7-dihydro-1H-imidazo[4,5-c]pyridin-5(4H)-yl)methanone] | ≤ 500
COc1ccc2oc([C@@H]3c4nc[nH]c4CCN3C(=O)c3oc(C(C)(C)O)nc3C(F)F)nc2c1 [Example 339, (S)-(4-(difluoromethyl)-2-(2-hydroxypropan-2-yl)oxazol-5-yl)(4-(5-methoxybenzo[d]oxazol-2-yl)-6,7-dihydro-1H-imidazo[4,5-c]pyridin-5(4H)-yl)methanone] | 500 to 1000
CC(C)n1ncnc1C(=O)N1CCc2[nH]cnc2[C@@H]1c1nc2cccc(F)c2o1 [Example 708, (R)-(4-(7-fluorobenzo[d]oxazol-2-yl)-6,7-dihydro-1H-imidazo[4,5-c]pyridin-5(4H)-yl)(1-isopropyl-1H-1,2,4-triazol-5-yl)methanone] | 500 to 1000

Same assay, conditions: A375 cells expressing R408W PAH; 24 hrs with compound, then 20 μM sepiapterin and 800 μM 13C9,15N-Phenylalanine for 4 hours; 13C-Tyrosine by LC-MS; average where tested multiple times

Compound | AC50 [nM]
Cc1ccc2nc(C3c4nc[nH]c4CCN3C(=O)c3nnc(-c4cn[nH]c4)o3)oc2c1 (centres unmarked) | 1000 to 5000
O=C(CCc1ncco1)N1CCc2[nH]cnc2C1c1nc2cc(F)ccc2o1 (centres unmarked) | 1000 to 5000
CN(C)Cc1ncc(C(=O)N2CCc3[nH]cnc3C2c2nc3cc(F)ccc3o2)o1 (centres unmarked) | ≥ 5000
CC(C)(O)c1cc(C(=O)N2CCc3[nH]cnc3C2c2nc3cc(F)ccc3o2)no1 (centres unmarked) | ≥ 5000
Cn1nc(C(C)(C)C)cc1C(=O)N1CCc2[nH]cnc2C1c1nc2ccccc2o1 (centres unmarked) | 1000 to 5000
Cn1nc(C(F)(F)F)nc1C(=O)N1CCc2[nH]cnc2C1c1nc2c(F)cccc2o1 (centres unmarked) | 1000 to 5000
CC(C)(O)c1ncc(C(=O)N2CCc3[nH]cnc3C2c2nc3c(F)ccc(F)c3o2)o1 (centres unmarked) | 1000 to 5000
CC(C)(O)c1nc(C(F)F)c(C(=O)N2CCc3[nH]cnc3C2c2nc3cc(C#N)ccc3o2)o1 (centres unmarked) | 1000 to 5000
O=C(c1nnc(-c2ccn(C(F)F)n2)o1)N1CCc2[nH]cnc2C1c1nc2cc(C(F)(F)F)ccc2o1 (centres unmarked) | 1000 to 5000
CN(C)CCOc1ccc2c(C(=O)N3CCc4[nH]cnc4C3c3nc4cc(F)ccc4o3)cnn2c1 (centres unmarked) | ≥ 5000
CN1CCN(c2nnc(C(=O)N3CCc4[nH]cnc4C3c3nc4cc(F)ccc4o3)o2)CC1 (centres unmarked) | 1000 to 5000
Cn1nc(C(F)F)nc1C(=O)N1CCc2[nH]cnc2C1c1nc2ccc(F)c(F)c2o1 (centres unmarked) | 1000 to 5000
CC(C)(O)c1nnc(C(=O)N2CCc3[nH]cnc3C2c2nc3cc(F)ccc3o2)o1 (centres unmarked) | ≥ 5000
CC(C)(F)c1nnc(C(=O)N2CCc3[nH]cnc3C2c2nc3cc(F)ccc3o2)o1 (centres unmarked) | 1000 to 5000
O=C(c1nnc(NC2CC2)o1)N1CCc2[nH]cnc2C1c1nc2cc(F)ccc2o1 (centres unmarked) | 1000 to 5000
CN(C)CCCc1ccc2c(C(=O)N3CCc4[nH]cnc4C3c3nc4cc(F)ccc4o3)cnn2c1 (centres unmarked) | ≥ 5000
CC(C)(O)C1CCN(c2ccc3c(C(=O)N4CCc5[nH]cnc5C4c4nc5cc(F)ccc5o4)cnn3c2)CC1 (centres unmarked) | 1000 to 5000
CN(C)c1nnc(C(=O)N2CCc3[nH]cnc3C2c2nc3cc(F)ccc3o2)o1 (centres unmarked) | 1000 to 5000
